In patent publication EP3098220A1, “PROCESS FOR THE PREPARATION OF A NADPH OXIDASE INHIBITOR AND ITS POLYMORPHS AND USES THEREOF” (GenKyoTex SA, priority 2015, dated 2016):
Values after ≈ are worked out from the molar mass of the structure shown. “Also recorded” adds a separate entry of the source. Like-named read-outs stand apart in the source and are kept apart here.

Legend:
Type in all cases: physicochemical
[1] = Solubility assessment of the two crystal forms (solubilized free base concentration over time in pH 7.4 buffer, HPLC); details: for solubility: pH 7.4
Procedure: The solubility of the two crystal forms have been characterized as described below: • A suspension is prepared in the buffer. Magnetic stirring is applied at 100 rpm.
The concentration of the free base in solution in buffer solution at pH 7.4 (38g Na2HPO4, 12 H2O + 3,8g NaH2PO4, 2 H2O completed to 1L with de-ionized water) is determined after 30 min, […], 2h, 4h, 6h and 24h at ambient temperature protected from light. For that purpose, the samples are withdrawn and filtered on filter Millex PVDF 0.22µm (diameter=13mm) and diluted in water/acetonitrile 50/50 (v/v) in order to reach a concentration in the range of standard solutions concentrations. Two separated dilutions are performed for each sample and the final result is the mean of these two dilutions results. The concentration of the solubilized fraction is determined by HPLC by a short gradient reverse phase standard method with UV-diode array detection solution.
The following tables display the solubilized freebase concentrations as a function of time at pH 7.4 (Table 10) at 20°C (samples protected from light) for: - Form A : crystalline freebase (sample 2), - Form B : crystalline freebase (sample 1).

[2] = Hygroscopicity assessment by dynamic water vapor sorption/desorption analysis (DVS); details: for sample mass uptake: 25°C; for hygroscopic character: criteria: 2% maximum uptake at 60% relative humidity
Procedure: The dynamic vapor sorption (DVS) analysis with water is performed on a DVS-Intrinsic incubator from SMS Ltd, equipped with DVS-Intrinsic Control Software 1.0. A sample weight of about 8 to 10mg, placed in an aluminum pan holder, is submitted to a full cycle analysis (sorption followed by desorption) in a dm/dt mode according to the conditions described in Table 6 below. Table 6 [table] The sample obtained after crystallization protocol is pre-dried under a stream of dry filtered air until a stable weight is obtained. Next, relative humidity is increased by 5% increments. For each step, the sample mass is allowed to increase until equilibrium is reached (dm/dt criterion), and then a new relative humidity rise occurs. […] After equilibration at this point, desorption begins in a similar stepwise fashion, with sample weight again allowed to stabilize after each incremental humidity decrease. For each segment of the method described above, the recording of the sample mass allows describing of the whole sorption/desorption behavior versus relative humidity. The hygroscopic character of the two crystal forms has been investigated as described above.

[3] = Solubility assessment of the two crystal forms (solubilized free base concentration over time in pH 7.4 buffer, HPLC); details: pH 7.4, 20°C, protected from light
[4] = Solubility assessment in pH 1 HCl/KCl buffer (saturation, 24 hours at 20°C, HPLC); details: pH 1, simulated gastric fluid, thermodynamic from solid
Procedure: The solubility of the HC1 salt and of the free base was compared in a pH1 HC1/KC1 buffer and in a pH 7.4 phosphate buffer. For each medium, the saturation of the medium is obtained by adding an excess of active ingredient to a given volume of test medium. The suspension is stirred over 24 hours at 20°C, protected from light. The supernatant is then isolated by centrifugation, diluted in a solvent mixture allowing its injection into the chromatographic system. The compound concentration in solution for each medium is determined by external standardization and HPLC under the conditions detailed in Table3 below. Solubility was tested over a range from 1 µg/mL up to 1 mg/mL.

Row | solubility [1] | solubility at 30 min ([1]; phosphate buffer, 20 °C, pH 7.4, aqueous buffer, thermodynamic from solid, pH 7.4, 20°C, protected from light, 30min, read-out: Solubilized fraction) | solubility at 2 h ([1]; phosphate buffer, 20 °C, pH 7.4, aqueous buffer, thermodynamic from solid, pH 7.4, 20°C, protected from light, 2h, read-out: Solubilized fraction) | solubility at 4 h ([1]; phosphate buffer, 20 °C, pH 7.4, aqueous buffer, thermodynamic from solid, pH 7.4, 20°C, protected from light, 4h, read-out: Solubilized fraction) | solubility at 6 h ([1]; phosphate buffer, 20 °C, pH 7.4, aqueous buffer, thermodynamic from solid, pH 7.4, 20°C, protected from light, 6h, read-out: Solubilized fraction) | solubility at 24 h ([1]; phosphate buffer, 20 °C, pH 7.4, aqueous buffer, thermodynamic from solid, pH 7.4, 20°C, protected from light, 24 h, read-out: Solubilized fraction) | sample mass uptake ([2]; 60% relative humidity) | sample mass uptake ([2]; 95% relative humidity) | solubility at 1 h ([3]; phosphate buffer, 20 °C, pH 7.4, aqueous buffer, thermodynamic from solid, read-out: Solubilized fraction) | Solubilized fraction ([1]; pH 7.4, 20°C, protected from light, 30min) | Solubilized fraction ([1]; pH 7.4, 20°C, protected from light, 2h) | Solubilized fraction ([1]; pH 7.4, 20°C, protected from light, 4h) | Solubilized fraction ([1]; pH 7.4, 20°C, protected from light, 6h) | Solubilized fraction ([1]; pH 7.4, 20°C, protected from light, 24 h) | solubility ([1]; phosphate buffer, 20 °C, pH 7.4, aqueous buffer, thermodynamic from solid, read-out: Solubility) | mass loss upon drying ([2]; drying at 0%RH) | Solubilized fraction ([3]; 1h) | solubility at 24 h [4] | SMILES | hygroscopic character [2]
1 | 500 µg/mL (≈ 1270 µM) | 330 µg/mL (≈ 836 µM) | 370 µg/mL (≈ 937 µM) | 390 µg/mL (≈ 988 µM) | 400 µg/mL (≈ 1010 µM) | 510 µg/mL (≈ 1290 µM) | 0.2% | 0.3% | 350 µg/mL (≈ 886 µM) |  |  |  |  |  |  |  |  |  | CN(C)c1cccc(-c2c3c(=O)n(-c4ccccc4Cl)[nH]c3cc(=O)n2C)c1 [Form A, 2-(2-chlorophenyl)-4-[3-(dimethylamino)phenyl]-5-methyl-1H-pyrazolo[4,3-c] pyridine-3,6(2H,5H)-dione] | 
2 |  |  |  |  |  |  |  |  |  | 0.23 mg/mL | 0.26 mg/mL | 0.27 mg/mL | 0.28 mg/mL | 0.26 mg/mL | 300 µg/mL (≈ 760 µM) | 0.2% | 0.25 mg/mL | > 30000 µg/mL | CN(C)c1cccc(-c2c3c(=O)n(-c4ccccc4Cl)[nH]c3cc(=O)n2C)c1 [Form B, 2-(2-chlorophenyl)-4-[3-(dimethylamino)phenyl]-5-methyl-1H-pyrazolo[4,3-c] pyridine-3,6(2H,5H)-dione] | non-hygroscopic; also recorded: not hygroscopic
3 |  |  |  |  |  |  | 0.2% | 0.3% |  |  |  |  |  |  |  |  |  |  | CN(C)c1cccc(-c2c3c(=O)n(-c4ccccc4Cl)[nH]c3cc(=O)n2C)c1 [free base, 2-(2-chlorophenyl)-4-[3-(dimethylamino)phenyl]-5-methyl-1H-pyrazolo[4,3-c] pyridine-3,6(2H,5H)-dione] | non-hygroscopic
